Laboratory results: USRE39921E1, “Chemical compounds” (SmithKline Beecham Corporation, priority 1999, dated 2007)
Where a name gives a salt, the structure may show the parent alone.

Experiments:
[1] = molecular target: T1, recombinant human NK1 receptors (Homo sapiens, UniProt P25103); assay: NK1-receptor binding affinity: displacement of [3H]-substance P from CHO cell membranes; settings: average of at least two determinations, [3H]-substance P displacement, read-out: pki (negative logarithm of the inhibition constant Ki of displacer ligands) (converted)
T1 construct: expressed in transfected cells; host or cells: Chinese Hamster Ovary (CHO) cells, membrane preparation
Experimental: Thus ligand binding was performed in 0.4 ml of 50 mM HEPES, pH 7.4, containing 3 mM MnCl2, 0.02% BSA, 0.5 nM [^3H]Substance P (30+56 Ci/mmol, Amersham), a final membrane concentration of 25 μg of protein/ml, and the test compounds. The incubation proceeded at room temperature for 40 min.
The affinity of the compound of the invention for NK1 receptor was determined using the NK1-receptor binding affinity method measuring in vitro by the compounds' ability to displace [3H]—substance P (SP) from recombinant human NK1 receptors expressed in Chinese Hamster Ovary (CHO) cell membranes. The affinity values are expressed as negative logarithm of the inhibition constant (Ki) of displacer ligands (pKi).

nk1 receptor = molecular target: T2, nk1 receptor (Meriones unguiculatus, UniProt Q5DUB1); assay: gerbil foot tapping model (hind foot tapping induced by icv NK1 agonist); assay type: in vivo; settings: oral administration, one hour before icv NK1 agonist; dose inhibiting tapping by 50%
T2 construct: from tissue; host or cells: living gerbil, central NK1 receptors (agonist infused icv)
Experimental: The action of the compounds of the invention at the NK1 receptor may be determined by using conventional tests. Thus the ability to bind at the NK1 receptor was determined using the gerbil foot tapping model as described by Rupniak & Williams, Eur. J. of Pharmacol., 1994.
The ability of the compounds of the invention at the nk1 receptor may be determined using the gerbil foot tapping model as described by Rupniak & Williams, Eur. Jour. of Pharmacol., 1994.
The compound was administered orally and one hour later an NK1 agonist (e.g. delta-Aminovaleryl^6[Pro^9,Me-Leu^10]-substance P (7-11)) (3 pmol in 5 μL, icv) was infused directly in the cerebral ventricules of the animals. The duration of hind foot tapping induced by the NK1 agonist (e.g. delta-Aminovaleryl^6[Pro^9,Me-Leu^10]-substance P (7-11)) was recorded continuously for 3 min using a stopclock. […] Alternatively the compounds may be administered subcutaneously or intraperitoneally.

T2 sequence (Q5DUB1 whole entry, the tested form may be a part): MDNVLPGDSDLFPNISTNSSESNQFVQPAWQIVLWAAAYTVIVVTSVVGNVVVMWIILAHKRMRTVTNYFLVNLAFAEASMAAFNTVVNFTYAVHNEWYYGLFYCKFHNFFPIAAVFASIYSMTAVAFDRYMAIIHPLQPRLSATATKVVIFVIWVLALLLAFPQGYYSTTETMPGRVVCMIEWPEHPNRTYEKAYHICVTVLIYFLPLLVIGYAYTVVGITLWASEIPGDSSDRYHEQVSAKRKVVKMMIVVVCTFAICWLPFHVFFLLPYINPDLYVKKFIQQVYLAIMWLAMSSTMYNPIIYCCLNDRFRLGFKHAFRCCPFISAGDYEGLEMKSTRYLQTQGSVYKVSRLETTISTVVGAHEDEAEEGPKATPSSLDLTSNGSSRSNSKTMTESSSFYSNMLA
T1 sequence (P25103 whole entry): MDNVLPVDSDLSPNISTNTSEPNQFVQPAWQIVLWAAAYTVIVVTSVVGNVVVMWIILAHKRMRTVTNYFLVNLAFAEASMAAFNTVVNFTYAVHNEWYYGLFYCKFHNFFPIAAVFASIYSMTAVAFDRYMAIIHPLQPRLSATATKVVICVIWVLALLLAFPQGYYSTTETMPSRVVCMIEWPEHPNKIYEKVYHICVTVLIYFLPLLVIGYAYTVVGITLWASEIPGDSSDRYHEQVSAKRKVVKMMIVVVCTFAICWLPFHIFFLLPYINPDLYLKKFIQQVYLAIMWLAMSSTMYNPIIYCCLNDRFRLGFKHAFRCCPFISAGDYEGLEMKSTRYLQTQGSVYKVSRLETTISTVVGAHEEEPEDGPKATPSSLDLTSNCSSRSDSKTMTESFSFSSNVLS

Row | Structure (SMILES) | melting point | Ki [1] | ED50(mg/kg po) (nk1 receptor)
1 | CC(C)c1cccc(C2CNCCN2C(=O)N(C)Cc2cc(C(F)(F)F)cc(C(F)(F)F)c2)c1.Cl (stereo not drawn) | 77 to 80 °C |  | 
2 | Cc1cc(F)ccc1C1CNCCN1C(=O)N1CC=CCC1c1cc(C(F)(F)F)cc(C(F)(F)F)c1 (single isomer, unassigned) [Example 28, hydrochloride] |  | 0.49 nM | 
3 | Cc1cc(F)ccc1[C@H]1CNCCN1C(=O)N1CCCCC1c1cc(C(F)(F)F)cc(C(F)(F)F)c1 (single isomer, unassigned) [Example 29, hydrochloride] |  | 1.35 nM | 
4 | C=CCC(c1cc(C(F)(F)F)cc(C(F)(F)F)c1)N(C)C(=O)N1CCNCC1c1ccc(F)cc1C (single isomer, unassigned) [Example 30, 2-(4-Fluoro-2-methyl-phenyl)-piperazine-1-carboxylic acid [1-(3,5-bis-trifluoromethyl-phenyl)-but-3-enyl]-methyl-amide hydrochloride] |  | 1.66 nM | 
5 | Cc1cc(F)ccc1C1CNCCN1C(=O)N(C)C(c1cc(C(F)(F)F)cc(C(F)(F)F)c1)C(C)C (single isomer, unassigned) [Example 32, 2-(4-Fluoro-2-methyl-phenyl)-piperazine-1-carboxylic acid [1-(3,5-bis-trifluoromethyl-phenyl)-2-methyl-propyl]-methyl-amide hydrochloride] |  | 1.02 nM | 
6 | Cc1cc(F)ccc1C1CNCCN1C(=O)N(C)C(c1cc(C(F)(F)F)cc(C(F)(F)F)c1)C1CC1 (single isomer, unassigned) [Example 34, 2(4-Fluoro-2-methyl-phenyl)-piperazine-1-carboxylic acid [(3,5-bis-trifluoromethyl-phenyl)-cyclopropyl-methyl]-methyl-amide hydrochloride] |  | 0.794 nM | 
7 | Cc1cc(F)ccc1C1CNCCN1C(=O)N(C)Cc1cc(C(F)(F)F)cc(C(F)(F)F)c1.Cl (stereo not drawn) [Example 1, 2-(4-Fluoro-2-methyl-phenyl)-piperazine-1carboxylic acid (3,5-bistrifluoromethyl-benzyl)-methyl-amide hydrochloride] | > 220 °C | 1.07 nM | 
8 | Cc1cc(C2CNCCN2C(=O)N(C)Cc2cc(C(F)(F)F)cc(C(F)(F)F)c2)ccc1F.Cl (stereo not drawn) [Example 4, 2(4-Fluoro-3-methyl-phenyl)-piperazine-1-carboxylic acid (3,5-bis-trifluoromethyl-benzyl)-methyl-amide hydrochloride] | 70 to 72 °C | 4.37 nM | 
9 | CN(Cc1cc(C(F)(F)F)cc(C(F)(F)F)c1)C(=O)N1CCNCC1c1ccc(F)cc1F.Cl (stereo not drawn) [Example 5, 2-(2,4-Difluoro-phenyl)-piperazine-1-carboxylic acid (3,5-bis-trifluoromethyl-benzyl)-methyl-amide hydrochloride] | 220 to 230 °C | 2.14 nM | 
10 | Cc1cc(F)ccc1[C@H]1CNCCN1C(=O)N(C)Cc1cc(C(F)(F)F)cc(C(F)(F)F)c1 [Example 8, (−)-2-(S)-(4-Fluoro-2-methyl-phenyl)-piperazine-1-carboxylic acid (3,5-bis-trifluoromethyl-benzyl)-methyl-amide hydrochloride] |  | 0.427 nM | 
11 | CN(Cc1cc(C(F)(F)F)cc(C(F)(F)F)c1)C(=O)N1CCNCC1c1ccc(F)cc1 (stereo not drawn) [Example 12, hydrochloride] |  | 2 nM | 
12 | CN(Cc1ccc(C(F)(F)F)c(C(F)(F)F)c1)C(=O)N1CCNCC1c1ccc(F)cc1.Cl (stereo not drawn) [Example 12] | > 200 °C |  | 
13 | CN(Cc1cc(C(F)(F)F)cc(C(F)(F)F)c1)C(=O)N1CCNCC1c1ccc(Cl)cc1Cl (stereo not drawn) [Example 14, 2-(2,4-Dichloro-phenyl)-piperazine-1-carboxylic acid (3,5-bistrifluoro methyl-benzyl)-methyl-amide hydrochloride] |  | 2 nM | 
14 | CC(=O)O.Cc1cc(F)ccc1[C@H]1CNCCN1C(=O)N(C)[C@@H](C)c1cc(C(F)(F)F)cc(C(F)(F)F)c1 [Example 19, 2-(S)-(4-Fluoro-2-methyl-phenyl)-piperazine-1-carboxylic acid [1-(S)-(3,5-bis-trifluoromethyl-phenyl)-ethyl]-methyl-amide acetate] |  |  | 0.04 mg/kg
15 | Cc1cc(F)ccc1[C@H]1CN(C(=O)CN)CCN1C(=O)N(C)Cc1cc(C(F)(F)F)cc(C(F)(F)F)c1.Cl [Example 20, 4-(2-Amino-acetyl)-2-(S)-(4-fluoro-2-methyl-phenyl)-piperazine-1-carboxylic acid (3,5-bis-trifluoromethyl-benzyl)-methyl-amide hydrochloride] |  | 0.347 nM | 0.065 mg/kg
16 | Cc1cc(F)ccc1[C@H]1CNCCN1C(=O)N(C)C(C)(C)c1cc(C(F)(F)F)cc(C(F)(F)F)c1.Cl [Example 21, 2-(S)-(4-Fluoro-2-methyl-phenyl)-piperazine-1-carboxylic acid [1-(3,5-bis-trifluoromethyl-phenyl)-1-methyl-ethyl]-methyl-amide hydrochloride] |  | 1.12 nM | 0.4 mg/kg
17 | Cc1cc(F)ccc1[C@H]1CN(CCN)CCN1C(=O)N(C)Cc1cc(C(F)(F)F)cc(C(F)(F)F)c1 [Example 22, 4(2-Aminoethyl)-2-(S)-(4-fluoro-2-methyl-phenyl)-piperazine-1-carboxylic acid (3,5-bis-trifluoromethyl-benzyl)-methyl-amide dihydrochloride Salt] |  | 0.407 nM | 
18 | Cc1cc(F)ccc1C1C(C)NCCN1C(=O)N(C)Cc1cc(C(F)(F)F)cc(C(F)(F)F)c1 (stereo not drawn) [Example 23, 2-(4-Fluoro-2-methyl-phenyl)-3-methyl-piperazine-1-carboxylic acid (3,5-bis-trifluoromethyl-benzyl)-methyl-amide hydrochloride salt] |  | 0.479 nM | 
19 | Cc1cc(F)ccc1C1CNCC(C)N1C(=O)N(C)Cc1cc(C(F)(F)F)cc(C(F)(F)F)c1.Cl (stereo not drawn) [Example 24, 2-(2-Methyl-4-fluoro-phenyl)-6-methyl-piperazine-1-carboxylic acid (3,5-bis-trifluoromethyl-benzyl)-methyl-amide hydrochloride salt] | > 200 °C | 0.661 nM | 
20 | Cc1cc(F)ccc1[C@H]1CNCCN1C(=O)N(C)C1(c2cc(C(F)(F)F)cc(C(F)(F)F)c2)CC1 [Example 25, 2-(S)-(4-Fluoro-2-methyl-phenyl)-piperazine-1-carboxylic acid [1-3,5-bis-trifluoromethyl-phenyl)-cyclopropyl]-methyl-amide hydrochloride] |  | 0.479 nM | 
21 | CS(=O)(=O)O.Cc1cc(F)ccc1[C@H]1CNCCN1C(=O)N(C)[C@H](C)c1cc(C(F)(F)F)cc(C(F)(F)F)c1 [Example 36, 2(S)-(4-Fluoro-2-methyl-phenyl)-piperazine-1-carboxylic acid [1-(R)-(3,5-bis-trifluoromethyl-phenyl)-ethyl]-methyl-amide methansulphonate] |  |  | 0.05 mg/kg
